Experiment: Viscosity by rotational viscometry (MCR 302e, concentric cylinder)
Type: physicochemical
Conditions: 2 wt % HPC, 0.2 wt % anionic surfactant, PVPK12 0 to 16 wt %
Experimental: Viscosity was measured with rotational viscometry with a modular compact rheometer (MCR) 302e (Anton Paar). A concentric cylinder geometry was used. Shear rate was varied logarithmic from 0.1 1/s to 1000 1/s. 6 measurement points per decade were used. The measurement time was varied from 10 s for a shear rate of 0.1 1/s and is for 1000 1/s. Shear rate vs. Shear stress was plotted. The slope described the viscosity. The shear rate independent viscosity was evaluated, and the middle value was used.
Viscosity was measured with rotational viscometry with a modular compact rheometer (MCR) 302e (Anton Paar). A concentric cylinder geometry was used. Shear rate was varied logarithmic from 0.1 1/s to 1000 1/s. 6 measurement points per decade were used. The measurement time was varied form 10 s for a shear rate of 0.1 1/s and is for 1000 1/s.

Compound	Impact of anionic surfactant on viscosity reduction induced by PVPK12 addition (FIG. 5)
C[C@H](CCC(=O)[O-])[C@H]1CC[C@H]2[C@@H]3CC[C@@H]4C[C@H](O)CC[C@]4(C)[C@H]3C[C@H](O)[C@]12C.[Na+] [Na-Deoxycholate]	do not show a reduction of viscosity
CCCCCCCCCCCCOS(=O)(=O)[O-].[Na+] [SDS, sodium dodecyl sulfate]	strongest impact
